From PubChem BioAssay (NCI)
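Growth conditions: 96-well plates. Treatment: test compound, 48 hours, 5 concentrations. Analysis: linear interpolation between bracketing concentrations; unreached endpoints set to highest concentration. TGI is the concentration that stops growth completely.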

Columns and labels:
Assay in all cases: DTP human tumour cell line panel, 48 h
A549 NSCLC = test system: A549 NSCLC
U251 CNS = test system: U251 CNS
SK-MEL-28 melanoma = test system: SK-MEL-28 melanoma
OVCAR-3 ovarian = test system: OVCAR-3 ovarian
COLO 205 colon = test system: COLO 205 colon
CCRF-CEM leukemia = test system: CCRF-CEM leukemia
HCT-116 colon = test system: HCT-116 colon
SF-295 CNS = test system: SF-295 CNS
SNB-75 CNS = test system: SNB-75 CNS
MDA-MB-435 = test system: MDA-MB-435
BT-549 breast = test system: BT-549 breast

SMILES	TGI (A549 NSCLC)	TGI (U251 CNS)	TGI (SK-MEL-28 melanoma)	TGI (OVCAR-3 ovarian)	TGI (COLO 205 colon)	TGI (CCRF-CEM leukemia)	TGI (HCT-116 colon)	TGI (SF-295 CNS)	TGI (SNB-75 CNS)	TGI (MDA-MB-435)	TGI (BT-549 breast)
CCOC(=O)C(C)(C)Oc1ccc2c(=O)cc(-c3ccccc3)oc2c1	59 µM	44.9 µM	30.7 µM	39 µM	36.8 µM	43.6 µM	31.1 µM	75 µM	57.6 µM		
Cc1cccc(C(C)(C)C)c1NC(=O)/C(Cc1nc2ccc([N+](=O)[O-])cc2[nH]c1=O)=N/NC(=O)C[N+](C)(C)C	> 100 µM	> 100 µM	> 100 µM	> 100 µM	> 100 µM		> 100 µM	> 100 µM	> 100 µM	> 100 µM	> 100 µM
CNC(=O)CCC(NC(C)=O)C(=O)NC(Cc1ccc(NC(=O)CCCCC(C)=O)cc1)C(=O)NC(CCC(=O)NC)C(=O)NC (centres undefined)	> 100 µM	> 100 µM	> 100 µM	> 100 µM	> 100 µM		> 100 µM	> 100 µM		> 100 µM	> 100 µM
Cc1cc2ccccc2c[n+]1CC(O)C[n+]1cc2ccccc2cc1C	> 100 µM	> 100 µM	> 100 µM	> 100 µM	> 100 µM		> 100 µM	> 100 µM	> 100 µM	> 100 µM	> 100 µM
CC1(C)O[C@@H](CO)[C@H]([C@@]23OC[C@H]4OC(C)(C)OC4[C@@H]2OC(C)(C)O3)O1 (some centres undefined)	> 100 µM	> 100 µM	> 100 µM	> 100 µM	> 100 µM		> 100 µM	> 100 µM	> 100 µM	> 100 µM	
COc1cc2cc(C(=O)N3CC(CCl)c4c3cc(N)c3ccccc43)[nH]c2cc1OCCN(C)C (centres undefined)	6 µM			0.0209 µM	0.00971 µM	< 0.005 µM	0.623 µM			< 0.005 µM	0.409 µM
O=C(CC(O)(C(F)(F)F)C(F)(F)F)C(CCCl)C(O)(C(F)(F)F)C(F)(F)F (centres undefined)	> 100 µM	> 100 µM	> 100 µM	65.3 µM	26.8 µM	> 100 µM	> 100 µM	> 100 µM	96.4 µM	> 100 µM	
CC1=CC(O)C(O)C2(C)C1CC1OC(=O)C(O)C3C(C)C(O)C4(O)OCC13C42 (centres undefined)	387 µM	475 µM	502 µM	121 µM	79.7 µM	96.9 µM	> 625 µM	364 µM	33.3 µM		
COC(=O)C(/C(=N/NC(=O)c1ccncc1)C(=O)Nc1ccccc1OC)c1nc2ccc(Cl)cc2[nH]c1=O (centres undefined)	> 100 µM	> 100 µM	> 100 µM	> 100 µM			> 100 µM	> 100 µM	> 100 µM	> 100 µM	> 100 µM
CS(=O)(=O)OCCN1CCC2(CC1)SSC1(CCN(CCOS(C)(=O)=O)CC1)S2	> 100 µM	> 100 µM	> 100 µM	99.7 µM	> 100 µM		> 100 µM	> 100 µM	> 100 µM	> 100 µM	> 100 µM
COc1ccc(/C=C/c2cc(O)cc(OC)c2)cc1	> 100 µM	> 100 µM	> 100 µM	> 100 µM	> 100 µM		> 100 µM	> 100 µM	> 100 µM	> 100 µM	> 100 µM
COc1cccc(NC(=O)CSc2nnc(-c3ccc(N=Cc4ccc(Cl)cc4)cc3)o2)c1	69.6 µM	30.8 µM	37.5 µM		41.4 µM	> 100 µM	36.3 µM	43.5 µM	66.3 µM		
c1ccc(CCN2CCCCCC2)nc1	> 100 µM	> 100 µM	> 100 µM	> 100 µM	> 100 µM	> 100 µM	> 100 µM	> 100 µM		> 100 µM	> 100 µM
CN(CCc1ccc(Cl)c(Cl)c1)[C@H]1CCCC[C@H]1N1CCCC1	> 100 µM	> 100 µM	> 100 µM	> 100 µM	> 100 µM		> 100 µM	> 100 µM		> 100 µM	> 100 µM
NC(Cc1cc(I)c(O)c(I)c1)C(=O)O (centres undefined)	> 500 µM	> 500 µM	> 500 µM	> 500 µM	> 500 µM	> 500 µM	> 500 µM	> 500 µM	> 330 µM		
CCCCc1c2c(nc3c1CCc1cc4c(nc1-3)-c1nc3c(c(CCCC)c1CC4)CCC/C3=C\c1ccccc1)/C(=C/c1ccccc1)CCC2	> 100 µM	> 100 µM	> 100 µM	> 100 µM	> 100 µM	> 100 µM	> 100 µM	> 100 µM			
CC(C)CCC[C@@H](C)[C@H]1CC[C@H]2[C@@H]3CC=C4C[C@@H](OC(=O)c5cccc6c(=O)c7ccccc7[nH]c56)CC[C@]4(C)[C@H]3CC[C@]12C	> 75 µM	> 75 µM	> 75 µM	> 75 µM	> 75 µM			> 75 µM	> 75 µM	> 75 µM	> 75 µM
CN=C(Nn1cnnc1)OC	> 100 µM	> 100 µM	> 100 µM	> 100 µM	> 100 µM	> 100 µM	> 100 µM	> 100 µM		> 100 µM	
O=C(/C=C/c1ccc(-c2ccccc2[N+](=O)[O-])o1)NCc1ccc(C(=O)NCCc2ccccc2)cc1	> 100 µM	> 100 µM	> 100 µM	> 100 µM	> 100 µM		> 100 µM	> 100 µM	> 100 µM	> 100 µM	> 100 µM
OC1CCCC1C(O)(C(F)(F)F)C(F)(F)F (centres undefined)	> 100 µM	> 100 µM	> 100 µM	> 100 µM	> 100 µM	> 100 µM	> 100 µM	> 100 µM	> 100 µM	> 100 µM	
S=C(N/N=C\C=N/NC(=S)N1CCCCCC1)N1CCCCCC1	> 100 µM	> 100 µM	> 100 µM	> 100 µM	> 100 µM		> 100 µM	> 100 µM	> 100 µM	> 100 µM	> 100 µM
CC(=O)/C=C/C=C(\C)CC/C=C(\C)CC(C)C	> 100 µM	87.7 µM	> 100 µM	78.7 µM	39 µM	37 µM	62.8 µM	> 100 µM	98.8 µM	77.1 µM	
